Reference: ChEMBL document CHEMBL1140860, “Synthesis and evaluation of dihydroartemisinin and dihydroartemisitene acetal dimers showing anticancer and antiprotozoal activity” (Bioorg Med Chem, 2009)
pIC50: −log10 of the molar value.

Tests used:
[1] = system: CAKI-1; assay: Growth inhibition of human Caki1 cells after 48 hrs by sulforhodamine B assay; type: functional; conditions: CAKI-1, 48 h
[2] = Selectivity index, ratio of TC50 for african green monkey (Cercopithecus aethiops) Vero cells to IC50 for chloroquine-sensitive Plasmodium falciparum D6; type: toxicity, cell-based
[3] = system: NCI-H522; assay: Growth inhibition of human NCI-H522 cells after 48 hrs by sulforhodamine B assay; type: functional; conditions: NCI-H522, 48 h
[4] = system: NCI/ADR-RES; assay: Growth inhibition of human NCI/ADR-RES cells after 48 hrs by sulforhodamine B assay; type: functional
[5] = system: OVCAR-5; assay: Growth inhibition of human OVCAR5 cells after 48 hrs by sulforhodamine B assay; type: functional; conditions: OVCAR-5, 48 h
[6] = system: TK-10; assay: Growth inhibition of human TK10 cells after 48 hrs by sulforhodamine B assay; type: functional; conditions: TK-10, 48 h
[7] = system: RXF 393; assay: Growth inhibition of human RXF393 cells after 48 hrs by sulforhodamine B assay; type: functional; conditions: RXF 393, 48 h
[8] = system: ACHN; assay: Growth inhibition of human ACHN cells after 48 hrs by sulforhodamine B assay; type: functional
[9] = system: NCI-H460; assay: Growth inhibition of human NCI-H460 cells after 48 hrs by sulforhodamine B assay; type: functional; conditions: NCI-H460, 48 h
[10] = system: SK-MEL-2; assay: Growth inhibition of human SK-MEL-2 cells after 48 hrs by sulforhodamine B assay; type: functional; conditions: SK-MEL-2, 48 h
[11] = system: DU-145; assay: Growth inhibition of human DU145 cells after 48 hrs by sulforhodamine B assay; type: functional; conditions: DU-145, 48 h
[12] = system: K562; assay: Growth inhibition of human K562 cells after 48 hrs by sulforhodamine B assay; type: functional; conditions: K562, 48 h
[13] = system: SR; assay: Growth inhibition of human SR cells after 48 hrs by sulforhodamine B assay; type: functional
[14] = system: PC-3; assay: Growth inhibition of human PC3 cells after 48 hrs by sulforhodamine B assay; type: functional; conditions: PC-3, 48 h
[15] = system: NCI-H226; assay: Growth inhibition of human NCI-H226 cells after 48 hrs by sulforhodamine B assay; type: functional; conditions: NCI-H226, 48 h
[16] = Growth inhibition of human […] cells after 48 hrs by sulforhodamine B assay; type: functional
[17] = system: T47D; assay: Growth inhibition of human T47D cells after 48 hrs by sulforhodamine B assay; type: functional
[18] = system: Malme-3M; assay: Growth inhibition of human MALME-3M cells after 48 hrs by sulforhodamine B assay; type: functional
[19] = system: UACC-257; assay: Growth inhibition of human UACC257 cells after 48 hrs by sulforhodamine B assay; type: functional; conditions: UACC-257, 48 h
[20] = system: HOP-62; assay: Growth inhibition of human HOP62 cells after 48 hrs by sulforhodamine B assay; type: functional; conditions: HOP-62, 48 h
[21] = system: A549; assay: Growth inhibition of human A549 cells after 48 hrs by sulforhodamine B assay; type: functional; conditions: A549, 48 h
[22] = system: SK-OV-3; assay: Growth inhibition of human SKOV3 cells after 48 hrs by sulforhodamine B assay; type: functional; conditions: SK-OV-3, 48 h
[23] = system: SK-MEL-5; assay: Growth inhibition of human SK-MEL-5 cells after 48 hrs by sulforhodamine B assay; type: functional; conditions: SK-MEL-5, 48 h
[24] = system: HT-29; assay: Growth inhibition of human HT-29 cells after 48 hrs by sulforhodamine B assay; type: functional; conditions: HT-29, 48 h
[25] = system: Plasmodium falciparum; assay: Antimalarial activity after 72 hrs against chloroquine-resistant Plasmodium falciparum W2 infected erythrocytes by LDH assay; type: functional, organism-based; conditions: W2, 72 h
[26] = system: SN12C; assay: Growth inhibition of human SN12C cells after 48 hrs by sulforhodamine B assay; type: functional
[27] = system: HCC 2998; assay: Growth inhibition of human HCC2998 cells after 48 hrs by sulforhodamine B assay; type: functional; conditions: HCC 2998, 48 h
[28] = Selectivity index, ratio of TC50 for african green monkey (Cercopithecus aethiops) Vero cells to IC50 for chloroquine-resistant Plasmodium falciparum W2; type: toxicity, cell-based
[29] = system: LOX IMVI; assay: Growth inhibition of human LOXIMVI cells after 48 hrs by sulforhodamine B assay; type: functional
[30] = system: MDA-MB-231; assay: Growth inhibition of human MDA-MB-231 cells after 48 hrs by sulforhodamine B assay; type: functional; conditions: MDA-MB-231, 48 h
[31] = system: KM12; assay: Growth inhibition of human KM12 cells after 48 hrs by sulforhodamine B assay; type: functional; conditions: KM12, 48 h
[32] = system: NCI-H23; assay: Growth inhibition of human NCI-H23 cells after 48 hrs by sulforhodamine B assay; type: functional; conditions: NCI-H23, 48 h
[33] = Cytotoxicity against african green monkey Vero cells after 48 hrs by neutral red assay; type: cell-based; conditions: chlorocebus sabaeus, read-out: TC50
[34] = system: NCI-H322M; assay: Growth inhibition of human NCI-H322M cells after 48 hrs by sulforhodamine B assay; type: functional
[35] = system: HCT-15; assay: Growth inhibition of human HCT15 cells after 48 hrs by sulforhodamine B assay; type: functional; conditions: HCT-15, 48 h
[36] = system: Plasmodium falciparum; assay: Antimalarial activity after 72 hrs against chloroquine-sensitive Plasmodium falciparum D6 infected in erythrocytes by LDH assay; type: functional, organism-based; conditions: D6, 72 h
[37] = system: SW-620; assay: Growth inhibition of human SW620 cells after 48 hrs by sulforhodamine B assay; type: functional; conditions: SW-620, 48 h
[38] = Growth inhibition of human Hs 578T cells after 48 hrs by sulforhodamine B assay; type: functional
[39] = system: OVCAR-4; assay: Growth inhibition of human OVCAR4 cells after 48 hrs by sulforhodamine B assay; type: functional; conditions: OVCAR-4, 48 h
[40] = system: HCT-116; assay: Growth inhibition of human HCT116 cells after 48 hrs by sulforhodamine B assay; type: functional; conditions: HCT-116, 48 h
[41] = system: M14; assay: Growth inhibition of human M14 cells after 48 hrs by sulforhodamine B assay; type: functional; conditions: M14, 48 h
[42] = system: COLO 205; assay: Growth inhibition of human COLO205 cells after 48 hrs by sulforhodamine B assay; type: functional; conditions: COLO 205, 48 h
[43] = system: UO-31; assay: Growth inhibition of human UO31 cells after 48 hrs by sulforhodamine B assay; type: functional; conditions: UO-31, 48 h
[44] = system: CCRF-CEM; assay: Growth inhibition of human CCRF-CEM cells after 48 hrs by sulforhodamine B assay; type: functional
[45] = system: SF-295; assay: Growth inhibition of human SF295 cells after 48 hrs by sulforhodamine B assay; type: functional; conditions: SF-295, 48 h
[46] = system: 786-0; assay: Growth inhibition of human 786-0 cells after 48 hrs by sulforhodamine B assay; type: functional; conditions: 786-0, 48 h
[47] = system: SK-MEL-28; assay: Growth inhibition of human SK-MEL-28 cells after 48 hrs by sulforhodamine B assay; type: functional; conditions: SK-MEL-28, 48 h
[48] = system: MDA-MB-435; assay: Growth inhibition of human MDA-MB-435 cells after 48 hrs by sulforhodamine B assay; type: functional; conditions: MDA-MB-435, 48 h
[49] = system: HL-60; assay: Growth inhibition of human HL-60(TB) cells after 48 hrs by sulforhodamine B assay; type: functional; conditions: HL-60, 48 h
[50] = system: MCF7; assay: Growth inhibition of human MCF7 cells after 48 hrs by sulforhodamine B assay; type: functional; conditions: MCF7, 48 h

**Q.** Which GI50 [1] does the source give for `COCC(CO[C@H]1O[C@@H]2O[C@@]3(C)CC[C@H]4[C@H](C)CC[C@@H]([C@H]1C)[C@@]24OO3)O[C@H]1O[C@@H]2O[C@@]3(C)CC[C@H]4[C@H](C)CC[C@@H]([C@H]1C)[C@@]24OO3` (stereo not given in full) here?
**A.** 192 nM

**Q.** What about the selectivity ratio [2] of the same compound?
**A.** > 43

**Q.** And the GI50 [3]?
**A.** 58 nM

**Q.** And the GI50 [4]?
**A.** 533 nM

**Q.** What about the GI50 [5] of the same compound?
**A.** 104 nM

**Q.** What about the GI50 [6] of the same compound?
**A.** 58 nM

**Q.** And the GI50 [7]?
**A.** 2970 nM

**Q.** And the GI50 [8]?
**A.** 189 nM

**Q.** What about the GI50 [9] of the same compound?
**A.** 81 nM

**Q.** What about the GI50 [10] of the same compound?
**A.** 122 nM

**Q.** And the GI50 [11]?
**A.** 8340 nM

**Q.** What about the GI50 [12] of the same compound?
**A.** 27 nM

**Q.** And the GI50 [13]?
**A.** 15 nM

**Q.** And the GI50 [14]?
**A.** 19 nM

**Q.** What about the GI50 [15] of the same compound?
**A.** 87 nM

**Q.** And the GI50 [16]?
**A.** 4 nM

**Q.** And the GI50 [17]?
**A.** 14 nM

**Q.** And the GI50 [18]?
**A.** 8130 nM

**Q.** And the GI50 [19]?
**A.** 159 nM

**Q.** And the GI50 [20]?
**A.** 5620 nM

**Q.** And the GI50 [21]?
**A.** 61 nM

**Q.** And the GI50 [22]?
**A.** 10900 nM

**Q.** And the GI50 [23]?
**A.** 496 nM

**Q.** What about the GI50 [24] of the same compound?
**A.** 19 nM

**Q.** What about the pIC50 [25] of the same compound?
**A.** 5.33

**Q.** And the GI50 [26]?
**A.** 153 nM

**Q.** What about the GI50 [27] of the same compound?
**A.** 108 nM

**Q.** What about the selectivity ratio [28] of the same compound?
**A.** > 159

**Q.** What about the GI50 [29] of the same compound?
**A.** 23 nM

**Q.** What about the GI50 [30] of the same compound?
**A.** 13100 nM

**Q.** And the GI50 [31]?
**A.** 18 nM

**Q.** And the GI50 [32]?
**A.** 81 nM

**Q.** And the CC50 at 48 h [33]?
**A.** > 745000 nM

**Q.** What about the GI50 [34] of the same compound?
**A.** 5960 nM

**Q.** And the GI50 [35]?
**A.** 17 nM

**Q.** And the pIC50 [36]?
**A.** 4.76

**Q.** What about the GI50 [37] of the same compound?
**A.** 15 nM

**Q.** What about the GI50 [38] of the same compound?
**A.** 74 nM

**Q.** And the GI50 [39]?
**A.** 5690 nM

**Q.** What about the GI50 [40] of the same compound?
**A.** 12 nM

**Q.** What about the GI50 [41] of the same compound?
**A.** 49 nM

**Q.** And the GI50 [42]?
**A.** 11 nM

**Q.** What about the GI50 [43] of the same compound?
**A.** 125 nM

**Q.** And the GI50 [44]?
**A.** 19 nM

**Q.** What about the GI50 [45] of the same compound?
**A.** 4630 nM

**Q.** And the GI50 [46]?
**A.** 185 nM

**Q.** And the GI50 [47]?
**A.** 5750 nM

**Q.** And the GI50 [48]?
**A.** 443 nM

**Q.** What about the GI50 [49] of the same compound?
**A.** 28 nM

**Q.** And the GI50 [50]?
**A.** 150 nM
